Laboratory results as given in patent US20250332178A1, “METHODS OF TREATING MYCOBACTERIAL INFECTIONS USING TETRACYCLINE COMPOUNDS” (priority 2018, published 2025).
Where two headings read alike, the source gives them in different places.

How the values were obtained:
M. intracellulare = test: MIC (CLSI broth dilution), slow-growing NTM isolates; format: cell-based; settings: Mycobacterium intracellulare, read-out: MIC
M. smegmatis group = test: MIC (CLSI broth dilution), RGM isolates; format: cell-based; settings: Mycolicibacterium smegmatis, read-out: MIC
M. arupense = test: MIC (CLSI broth dilution), slow-growing NTM isolates; format: cell-based; settings: isolate 11, Other; read-out: MIC
M. chimaera = test: as above; format: cell-based; settings: read-out: MIC
M. simiae = test: as above; format: cell-based; settings: read-out: MIC
M. fortuitum group = test: MIC (CLSI broth dilution), RGM isolates; format: cell-based; settings: Mycolicibacterium fortuitum, read-out: MIC
M. chelonae = test: MIC (CLSI broth dilution), RGM isolates; format: cell-based; settings: Mycobacteroides chelonae, read-out: MIC
[1] = test system: rapid-growing mycobacteria (RGM) isolates; test: MIC (CLSI broth dilution), all RGM isolates; format: cell-based, nontuberculous mycobacteria; settings: all 50 RGM isolates
[2] = test system: slow-growing NTM isolates; test: MIC (CLSI broth dilution), all slow-growing NTM isolates; format: cell-based, nontuberculous mycobacteria; settings: all slow-growing NTM isolates
M. mucogenium group = test: MIC (CLSI broth dilution), RGM isolates; format: cell-based; settings: read-out: MIC
M. abscessus complex = test: MIC (CLSI broth dilution), RGM isolates; format: cell-based; settings: Mycobacteroides abscessus, read-out: MIC
M. avium = test: MIC (CLSI broth dilution), slow-growing NTM isolates; format: cell-based; settings: Mycobacterium avium, read-out: MIC
M. immunogenum group = test: MIC (CLSI broth dilution), RGM isolates; format: cell-based; settings: M. immunogenum, read-out: MIC

CN(C)c1cc(CNCC(C)(C)C)c(O)c2c1C[C@H]1C[C@H]3[C@H](N(C)C)C(O)=C(C(N)=O)C(=O)[C@@]3(O)C(O)=C1C2=O [OMC]
> 16 µg/mL: MIC (M. intracellulare; isolate 6, MAC) | MIC (M. intracellulare; isolate 7, MAC) | MIC (M. intracellulare; isolate 8, MAC) | MIC (M. intracellulare; isolate 9, MAC) | MIC (M. intracellulare; isolate 10, MAC) | MIC (M. arupense) | MIC (M. chimaera; isolate 4, MAC) | MIC (M. chimaera; isolate 5, MAC) | MIC (M. simiae; isolate 13, Other) | MIC (M. simiae; isolate 14, Other) | MIC (M. simiae; isolate 15, Other) | MIC50 ([2]; read-out: MIC50) | MIC90 ([2]; read-out: MIC90) | MIC (M. avium; isolate 1, MAC) | MIC (M. avium; isolate 2, MAC) | MIC (M. avium; isolate 3, MAC)
1 µg/mL: MIC (M. mucogenium group; isolate 41, M. mucogenicum group, M. mucogenicum) | MIC (M. mucogenium group; isolate 43, M. mucogenicum group, M. phocaicum) | MIC (M. mucogenium group; isolate 46, M. mucogenicum group, M. phocaicum) | MIC (M. mucogenium group; isolate 47, M. mucogenicum group, M. phocaicum)
0.12 µg/mL: MIC (M. fortuitum group; isolate 23, M. fortuitum group, M. fortuitum) | MIC (M. fortuitum group; isolate 24, M. fortuitum group, M. fortuitum) | MIC (M. fortuitum group; isolate 25, M. fortuitum group, M. fortuitum) | MIC (M. fortuitum group; isolate 27, M. fortuitum group, M. porcinum) | MIC (M. fortuitum group; isolate 30, M. fortuitum group, M. porcinum/M. boenickei) | MIC (M. fortuitum group; isolate 32, M. fortuitum group, M. senegalense) | MIC (M. fortuitum group; isolate 33, M. fortuitum group, M. senegalense) | MIC (M. fortuitum group; isolate 34, M. fortuitum group, M. senegalense) | MIC (M. chelonae; isolate 18, M. chelonae) | MIC (M. chelonae; isolate 20, M. chelonae) | MIC (M. chelonae; isolate 21, M. chelonae) | MIC (M. abscessus complex; isolate 4, M. abscessus complex, erm gene type massiliense) | MIC (M. abscessus complex; isolate 6, M. abscessus complex, erm gene type Type 1 abscessus) | MIC (M. abscessus complex; isolate 7, M. abscessus complex, erm gene type Type 1 abscessus) | MIC (M. abscessus complex; isolate 8, M. abscessus complex, erm gene type Type 1 abscessus) | MIC (M. abscessus complex; isolate 9, M. abscessus complex, erm gene type Type 1 abscessus) | MIC (M. abscessus complex; isolate 10, M. abscessus complex, erm gene type Type 1 abscessus) | MIC (M. abscessus complex; isolate 11, M. abscessus complex, erm gene type Type 6 abscessus) | MIC (M. abscessus complex; isolate 12, M. abscessus complex, erm gene type Type 6 abscessus) | MIC (M. abscessus complex; isolate 14, M. abscessus complex, erm gene type Type 6 abscessus) | MIC (M. abscessus complex; isolate 15, M. abscessus complex, erm gene type Type 7 abscessus)
0.25 µg/mL: MIC (M. fortuitum group; isolate 28, M. fortuitum group, M. porcinum/M. boenickei) | MIC (M. fortuitum group; isolate 29, M. fortuitum group, M. porcinum/M. boenickei) | MIC (M. fortuitum group; isolate 31, M. fortuitum group, M. senegalense) | MIC (M. chelonae; isolate 19, M. chelonae) | MIC (M. chelonae; isolate 22, M. chelonae) | MIC50 ([1]; read-out: MIC50) | MIC (M. mucogenium group; isolate 39, M. mucogenicum group, M. mucogenicum) | MIC (M. mucogenium group; isolate 40, M. mucogenicum group, M. mucogenicum) | MIC (M. mucogenium group; isolate 48, M. mucogenicum group, M. phocaicum) | MIC (M. abscessus complex; isolate 1, M. abscessus complex, erm gene type MAB30) | MIC (M. abscessus complex; isolate 2, M. abscessus complex, erm gene type MAB30) | MIC (M. abscessus complex; isolate 3, M. abscessus complex, erm gene type MAB30) | MIC (M. abscessus complex; isolate 5, M. abscessus complex, erm gene type massiliense/subsp. abs hybrid) | MIC (M. abscessus complex; isolate 13, M. abscessus complex, erm gene type Type 6 abscessus) | MIC (M. abscessus complex; isolate 16, M. abscessus complex, erm gene type Type 7 abscessus) | MIC (M. immunogenum group; isolate 36, M. immunogenum group)
0.5 µg/mL: MIC (M. smegmatis group; isolate 50, M. smegmatis group, M. wolinskyi) | MIC90 ([1]; read-out: MIC90) | MIC (M. mucogenium group; isolate 42, M. mucogenicum group, M. mucogenicum) | MIC (M. mucogenium group; isolate 44, M. mucogenicum group, M. phocaicum) | MIC (M. mucogenium group; isolate 45, M. mucogenicum group, M. phocaicum) | MIC (M. immunogenum group; isolate 35, M. immunogenum group) | MIC (M. immunogenum group; isolate 37, M. immunogenum group) | MIC (M. immunogenum group; isolate 38, M. immunogenum group)
0.06 µg/mL: MIC (M. smegmatis group; isolate 49, M. smegmatis group, M. goodii) | MIC (M. fortuitum group; isolate 26, M. fortuitum group, M. porcinum) | MIC (M. abscessus complex; isolate 17, M. abscessus complex, erm gene type Type 8 abscessus)

CO[C@H]1/C=C/O[C@@]2(C)Oc3c(C)c(O)c4c(O)c(c(/C=N/N5CCN(C)CC5)c(O)c4c3C2=O)NC(=O)/C(C)=C\C=C\[C@H](C)[C@H](O)[C@@H](C)[C@@H](O)[C@@H](C)[C@H](OC(C)=O)[C@@H]1C [RIF, rifampin]
> 2 µg/mL: MIC (M. arupense) | MIC (M. simiae; isolate 13, Other) | MIC (M. simiae; isolate 14, Other) | MIC (M. simiae; isolate 15, Other)
